Where a name gives a salt, the structure may show the parent alone.
Assays:
[1] = system: murine leukemic cells L5178Y; test: Inhibition of reproduction of murine leukemic cells L5178Y by cytotoxic liponucleotide analogs - 72 hours; format: cell-based; conditions: for IC50: read-out: MOLAR CON[…] 50 PERCENT INHIBITION, 50% decrease in number of doublings vs untreated controls, read-out: MOLAR CONCENTRATION CAUSING 50 PERCENT INHIBITION
Experimental: The leukemic cells L5178Y were grown from an inoculum of 4×10^3 cells per ml for a period of 72 hours in the presence of different levels (10^-4 -10^-7 M) of drugs.

[2] = system: human colon carcinoma HCT-15 cells; test: Antitumor activity against human colon carcinoma in immunosuppressed mice; format: in vivo, mouse; conditions: for TUMOR WEIGHT: control 89.7 ± 4.9
Experimental: Male B6D2F1 mice (18-22 g, 4/group) were immunosuppressed with 0.25 ml subcutaneous injection of ATS on days -1,0,1,3 and 6. Human colon carcinoma cells (5.0×10^6 cells/mouse) were inoculated subcutaneously into an area slightly above the left inguinal region on day 0. The drug dissolved in saline to a volume of 0.1 ml was injected intraperitoneally once a day for four consecutive days. Saline was administered to the controls. The percent change in body weight from the onset to the day of weighing the tumor was used as an indication of drug toxicity.

[3] = system: mouse antisheep erythrocyte antibody-forming cells; test: Suppression of IgM and IgG mouse antisheep erythrocyte antibody-forming cells (AFC); format: in vivo
[4] = system: leukemia L5178Y ascites cells; test: Survival time of mice bearing leukemia L5178Y ascites cells, Ia-11-diglyceride; format: in vivo, mouse; conditions: for AVERAGE SURVIVAL (DAYS ± S.E.): control 17.6 ± 0.2; for prolongation of survival times: mice bearing leukemia L5178Y cells
Experimental: Mice (10/group) were inoculated with L5178Y cells (5×10^6 cells/mouse) and drug injections were begun on the second day. The drug in a volume of 0.1 ml was injected intraperitioneally once a day for four consecutive days. Saline was administered to the controls. The percent change in body weight from the onset to the termination of therapy was used as an indication of drug toxicity.

[5] = system: CMI-DTH reactions; test: CMI-DTH reactions; format: in vivo, mouse
[6] = system: murine leukemic cells L5178Y; test: Inhibition of reproduction of murine leukemic cells L5178Y by liponucleotides - 2 hours (dilute agar colony method); format: cell-based; conditions: for viability at 100 µM / viability at 10 µM / viability at 1 µM / viability at 0.1 µM: Mus musculus, L5178Y, 2 hours, untreated control normalized to 100%, read-out: PERCENT SURVIVAL; for viability at 100 µM: 1 × 10^-4 M; for viability at 10 µM: 1 × 10^-5 M; for viability at 1 µM: 1 × 10^-6 M; for viability at 0.1 µM: 1 × 10^-7 M
Experimental: L5178Y cells (2×10^5 /ml) in the exponential phase of growth were incubated singly with drugs for a period of 2 hours at concentrations of […] to 1×10^-7 M. Cell viability was determined by the dilute agar colony method. Each observation represents the mean value of three experimentations with four replicates per experiment. A minimum of 200 colonies were counted for each group. The cloning efficiency of the untreated cells was approximately 75%; all values were normalized to 100%.

[7] = system: leukemic cells L5178Y; test: Animal antitumor activity of liponucleotides (leukemic cell kill in the peritoneal cavity); format: in vivo, mouse; conditions: for PERCENT SURVIVAL: L5178Y i.p., control 100
Experimental: The leukemic cells L5178Y (4×10^5 cells/mouse) were injected intraperitoneally on day 0. Drugs at various dosages (20 mg/kg, 40 mg/kg and 100 mg/kg) were injected on day 5 and incubated for 2 hours. At the end of the incubations, 5.0 ml of Fischer's medium containing 10% horse serum (FMS) was injected […].). After mixing, 1.0 ml aliquots were withdrawn and transferred to culture tubes containing 5.0 ml of FMS. Cells were centrifuged immediately, washed 2 xs and resuspended in 5.0 ml of FMS. Cell viability was determined by the dilute agar colony method.

[8] = system: leukemia L5178Y ascites cells; test: Survival time of mice bearing leukemia L5178Y ascites cells, Ia-11-dipalmitin; format: in vivo, mouse; conditions: for PER CENT CHANGE IN LIFE SPAN / AVERAGE SURVIVAL / PER CENT CHANGE IN WEIGHT: i.p. twice a day ×4 days; for AVERAGE SURVIVAL: control 15.0 ± 0.28; for PER CENT CHANGE IN WEIGHT: control -1.4
Experimental: Mice (10/group) were inoculated with L5178Y cells (5×10^6 cells/mouse) and drug injections were begun on the second day. The drug in a volume of 0.2 ml was injected intraperitoneally twice a day at a five-hour interval for four consecutive days. Distilled water was administered to the controls. The percent change in body weight from the onset to the termination of therapy was used as an indication of drug toxicity.

[9] = LD10 (lethality); format: in vivo; conditions: ×4 regimen
[10] = 50 mg/kg/day×4, intraperitoneal
[11] = 30 mg/kg daily dosage (first 30 line)
[12] = 30 mg/kg daily dosage (second 30 line)

## CCCCCCCCCCCCCCCC(=O)OCC(COP(=O)(O)OP(=O)(O)OC[C@H]1O[C@@H](n2ccc(N)nc2=O)[C@@H](O)[C@@H]1O)OC(=O)CCCCCCCCCCCCCCC (stereo partly shown)
[1]; Mus musculus, L5178Y, 72 hours
  IC50: 14 µM

## 1-Beta-D-Arabinofuranosylcytosine-5'-diphosphate-L-diglyceride Diammonium Salt [Ia-11-Diglyceride]
[1]; in culture (Table 2)
  antitumor activity in culture relative to Ia-11-dipalmitin: superior activity
[2]; 25 mg/kg daily i.p. ×4 days
  PER CENT OF CONTROL TUMOR WEIGHT: 68.4 ± 15.6 PER CENT
  TUMOR WEIGHT: 61.3 ± 14.0 mg
[2]; 50 mg/kg daily i.p. ×4 days, *P 0.005 (1tailed "t" test)
  PER CENT OF CONTROL TUMOR WEIGHT: 21.0 ± 13.5 PER CENT
[2]; 50 mg/kg daily i.p. ×4 days
  TUMOR WEIGHT: 18.7 ± 12.0 mg
[2]; 50 mg/kg/day×4, excised tumors weighed, vs non-treated control
  inhibition of tumor growth: 80%
[3]; [10]
  IgG AFC/10^6 spleen cells: background levels
  IgG AFC/spleen: background levels
  IgM AFC/10^6 spleen cells: background levels
  IgM AFC/spleen: background levels
[3]; mouse, in vivo
  suppression of IgM and IgG AFC relative to cytosine arabinoside "equivalent": more pronounced suppression
[4]; 12.5 mg/kg daily i.p. ×4 days
  % CHANGE IN LIFE SPAN: +29.6%
  AVERAGE SURVIVAL (DAYS ± S.E.): 22.0 ± 0.6 days
[4]; 25.0 mg/kg daily i.p. ×4 days
  % CHANGE IN LIFE SPAN: +44.3%
  AVERAGE SURVIVAL (DAYS ± S.E.): 25.4 ± 1.1 days
[4]; 50.0 mg/kg daily i.p. ×4 days
  % CHANGE IN LIFE SPAN: +93.2%
  AVERAGE SURVIVAL (DAYS ± S.E.): 34.0 ± 2.4 days
[4]; 50 mg/kg/day×4
  log cell kill: 4 log
  prolongation of survival times: 93%
[4]; Table 4 compared with Table 5
  difference in antitumor activity in vivo vs Ia-11-dipalmitin: significant difference in antitumor activity in vivo
[4]; leukemia L5178Y in vivo (Table 4)
  in vivo activity relative to cytosine arabinoside: significantly more active than cytosine arabinoside
[5]; 50 mg/kg, (day 4-7) or more
  delay of peak DTH response: ≥ 3 days
[5]; 50 mg/kg, later periods, judged by very late rising profile of response
  immunostimulatory activity on DTH: may have immunostimulatory activity on DTH at later periods

## CCCCCCCCCCCCCCCC(=O)OCC(COP(=O)(O)OP(=O)(O)OC[C@H]1O[C@@H](n2ccc(N)nc2=O)[C@H](O)[C@@H]1O)OC(=O)CCCCCCCCCCCCCCC (mixture of isomers) [Ia-1-Dipalmitin, 1-Beta-D-Ribofuranosylcytosine-5'-Diphosphate-DL-1,2-Dipalmitin Diammonium Salt]
[6]
  viability at 100 µM: 65.7 ± 5.69%
  viability at 10 µM: 76.7 ± 6.66%
  viability at 1 µM: 94.7 ± 4.04%
  viability at 0.1 µM: 94.7 ± 5.03%
[6]; in culture (Table 1)
  activity relative to the CLNA molecule containing the beta-D-arabinofuranosyl moiety: activity comparable to the CLNA molecule
[7]; 20 mg/kg on day 5, 2 hours
  PERCENT SURVIVAL: 57%
[7]; 40 mg/kg on day 5, 2 hours
  PERCENT SURVIVAL: 54%
[7]; 100 mg/kg on day 5, 2 hours
  PERCENT SURVIVAL: 43%
[7]; peritoneal cavity (Table 3)
  activity relative to the CLNA molecule containing the beta-D-arabinofuranosyl moiety: activity comparable to the CLNA molecule

## CCCCCCCCCCCCCCCC(=O)OCC(COP(=O)(O)OP(=O)(O)OC[C@H]1O[C@@H](n2ccc(N)nc2=O)[C@@H](O)[C@@H]1O)OC(=O)CCCCCCCCCCCCCCC (mixture of isomers) [Ia-11-Dipalmitin, 1-Beta-D-Arabinofuranosylcytosine-5'-diphosphate-DL-1,2-dipalmitin Diammonium Salt]
[6]
  viability at 100 µM: 65 ± 1.73%
  viability at 10 µM: 84.3 ± 0.58%
  viability at 1 µM: 90 ± 4.58%
  viability at 0.1 µM: 94 ± 3%
[1]; 10^-4 M, 72 hours, listed as ara-CDP-dipalmitin, Diammonium Salt
  PERCENT INHIBITION AT 10^-4 M: less than 50%
[1]; Mus musculus, L5178Y, 72 h, 10^-4 M, 72 hours, read-out: PERCENT INHIBITION AT 10^-4 M
  inhibition at 100 µM: 42%
[7]; 20 mg/kg on day 5, 2 hours
  PERCENT SURVIVAL: 61%
[7]; 40 mg/kg on day 5, 2 hours
  PERCENT SURVIVAL: 58%
[7]; 100 mg/kg on day 5, 2 hours
  PERCENT SURVIVAL: 43%
[8]; [11]
  PER CENT CHANGE IN LIFE SPAN: +24.0 PER CENT
  AVERAGE SURVIVAL: 18.6 ± 0.22 days
  PER CENT CHANGE IN WEIGHT: -5.0 PER CENT
[8]; [12]
  PER CENT CHANGE IN LIFE SPAN: +32.0 PER CENT
  AVERAGE SURVIVAL: 19.8 ± 0.82 days
  PER CENT CHANGE IN WEIGHT: -5.86 PER CENT
[8]; 50 mg/kg daily dosage
  PER CENT CHANGE IN LIFE SPAN: +37.3 PER CENT
  AVERAGE SURVIVAL: 20.6 ± 0.76 days
  PER CENT CHANGE IN WEIGHT: -3.5 PER CENT
[8]; leukemia L5178Y in vivo (Table 5)
  in vivo activity relative to cytosine arabinoside: significantly more active than cytosine arabinoside

## Nc1ccn([C@@H]2O[C@H](COP(=O)(O)O)[C@@H](O)[C@@H]2O)c(=O)n1 [Cytosine Arabinoside 5'-Phosphate]
[6]
  viability at 100 µM: 54.8 ± 1.54%
  viability at 10 µM: 87.5 ± 5.18%
  viability at 1 µM: 93 ± 8.9%
  viability at 0.1 µM: 99 ± 5.21%
[1]; Mus musculus, L5178Y, 72 hours
  IC50: 0.27 µM

## Nc1ccn([C@@H]2O[C@H](CO)[C@@H](O)[C@@H]2O)c(=O)n1 [Cytosine Arabinoside, cytosine arabinoside, reference compound]
[2]; 200 mg/kg/day×4, determined by palpation
  inhibition of tumor cell growth: no inhibition of tumor cell growth
[3]; 11 mg/kg/day×4
  reduction of peak (day 4) number of IgM AFC/10^6 spleen cells: 63%
  reduction of peak (day 5) number of IgG AFC/10^6 spleen cells: 55%
[3]; 11 mg/kg/day×4, from 494±123
  peak (day 5) number of IgG AFC/10^6 spleen cells: 224±72 AFC/10^6 spleen cells
[3]; 11 mg/kg/day×4, from 495±130
  peak (day 4) number of IgM AFC/10^6 spleen cells: 180±28 AFC/10^6 spleen cells
[3]; 50 mg/kg/day×4
  AFC: background levels
[9]
  LD10: 71 mg/kg/day×4
[4]; 13 mg/kg×4 (dose "equivalent" to 50 mg of Ia-11-diglyceride by molecular weight), inferred
  change in life spans as compared with control animals: no change in life spans
[4]; 50.0 mg/kg daily i.p. ×4 days
  % CHANGE IN LIFE SPAN: +17.6%
  AVERAGE SURVIVAL (DAYS ± S.E.): 20.7 ± 5.4 days
[4]; 50.0 mg/kg daily i.p. ×4 days, control +0.66
  % CHANGE IN WEIGHT: -6.90%
[4]; 50 mg/kg/day×4
  prolongation of survival times: 18%
[5]; 11 or 50 mg/kg
  suppression of CMI-DTH reactions: poorly suppressed
